Data as given in patent publication US20080221093A1, “Metalloprotease inhibitors containing a heterocyclic moiety” (priority 2007, published 2008).

Target: T1, catalytic domain of MMP-13 enzyme (Homo sapiens, UniProt P45452)
T1 construct: stock solution of catalytic domain of MMP-13 enzyme; purchased Invitek (Berlin) 30100812
Assay: Assay for determining MMP-13 inhibition (fluorescent substrate)
Format: biochemical
Details: compounds named as lower than 100 nM
Description: Assay for Determining MMP-13 Inhibition
The typical assay for MMP-13 activity is carried out in assay buffer comprised of 50 mM Tris, pH 7.5, 150 mM NaCl, 5 mM CaCl2 and 0.05% Brij-35. Different concentrations of tested compounds are prepared in assay buffer in 50 μL aliquots. 10 μL of a 50 nM stock solution of catalytic domain of MMP-13 enzyme (produced by Alantos or commercially available from Invitek (Berlin), Cat.# 30100812) is added to the compound solution. The mixture of enzyme and compound in assay buffer is thoroughly mixed and incubated for 10 min at room temperature. Upon the completion of incubation, the assay is started by addition of 40 μL of a 12.5 μM stock solution of MMP-13 fluorescent substrate (Calbiochem, Cat. No. 444235). The time-dependent increase in fluorescence is measured at the 320 nm excitation and 390 nm emission by automatic plate multireader. The IC50 values are calculated from the initial reaction rates.

Row | IC50 [µM] | SMILES
1 | < 0.1 | O=C1COc2ccc(CNC(=O)c3cnc4ccccc4n3)cc2N1 [3/137]
2 | < 0.1 | O=C1COc2ccc(CNC(=O)C3NC(=O)c4ccccc4N3)cc2N1 (centres unmarked) [Example 1/4]
